The results in this text go back to patent US20240317744A1, “Bicyclic Ureas As Kinase Inhibitors” (Incyte Corporation, priority 2023, published 2024).

Experiment [1] concerns the target T1, catalytic domain (JH1, amino acids 826-1132) of human JAK2 (Homo sapiens, UniProt O60674).
T1 construct: catalytic domain (JH1, amino acids 826-1132) of human JAK2; FLAG (N); biotin (biotinylated); purchased Carna Biosciences 08-445-20N; host or cells: baculovirus expression system
Nature of the experiment: JAK2 LanthaScreen JH1 Binding Assay. The note with it: JAK2 JH1 1.5 nM, 50 nM tracer, 2 hours at 25° C.; read-out: JH1 BIND. In a few lines:
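FLAG-tagged, biotinylated JAK2 JH1 (aa 826-1132, baculovirus-expressed; 1.5 nM) incubated 2 h at 25° C with compounds, 50 nM fluorescent tracer and 0.5 nM Streptavidin-Tb in Tris pH 7.5 buffer with MgCl2, Brij-35, BSA, EGTA, glycerol, DTT. Nonspecific binding defined with 2 mM ATP; TR-FRET IC50 from four-parameter fit.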
(Time-resolved FRET reads energy transfer from a long-lived donor to a nearby acceptor.)

The target in experiment [2] is T2, pseudo-kinase domain (JH2, amino-acids 536-812) of human Wild Type JAK2 (Homo sapiens, UniProt O60674, F794H/W659A/W777A).
T2 construct: pseudo-kinase domain (JH2, amino-acids 536-812 with 3 surface mutations W659A, W777A, F794H); His (C); purchased BPS Bioscience 79463; host or cells: baculovirus expression system
T2 sequence (O60674 536-812 W659A/W777A/F794H): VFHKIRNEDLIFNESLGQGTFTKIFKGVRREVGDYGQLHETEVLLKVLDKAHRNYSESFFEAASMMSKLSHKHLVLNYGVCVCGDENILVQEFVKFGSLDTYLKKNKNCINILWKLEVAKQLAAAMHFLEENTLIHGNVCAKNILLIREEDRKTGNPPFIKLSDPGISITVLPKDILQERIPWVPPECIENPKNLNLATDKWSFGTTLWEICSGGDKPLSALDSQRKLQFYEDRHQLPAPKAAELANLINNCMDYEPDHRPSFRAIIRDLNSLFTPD
The experiment can be described thus: JAK2 LanthaScreen JH2-WT Binding Assay. The conditions noted are these: JAK2 JH2-WT 0.145 nM, 50 nM tracer, 1 hour at 25° C.; read-out: JH2 BIND WT. In a few lines:
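Biotinylated His-Avi-tagged JAK2 JH2 (0.145 nM), baculovirus-expressed, incubated with compounds, 50 nM fluorescent JH2 tracer and 0.25 nM streptavidin-Tb, 1 h at 25° C in pH 7.5 Tris buffer with MgCl2 and DTT. Non-specific binding defined with 2 mM ATP. TR-FRET read; IC50 from four-parameter fit.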

Experiment [3] has as its target T3, pseudo-kinase domain (JH2, amino-acids 536-812) of human V617F mutant JAK2 (Homo sapiens, UniProt O60674, F794H/V617F/W659A/W777A).
T3 construct: pseudo-kinase domain (JH2, amino-acids 536-812 with 3 surface mutations W659A, W777A, F794H); His (C); purchased BPS Bioscience 79498; host or cells: baculovirus expression system
The experiment can be described thus: JAK2 LanthaScreen JH2-V617F Binding Assay. The conditions noted are these: JAK2 JH2-V617F 0.26 nM, 50 nM tracer, 1 hour at 25° C.; read-out: JH2 BIND V617F. The method, boiled down:
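IC50 values came from four-parameter dose-response fits of LanthaScreen signal, read after compounds sat 1 hour at 25° C with 0.26 nM baculovirus-expressed biotinylated protein, 50 nM fluorescent tracer and 0.25 nM streptavidin-Tb cryptate. Non-specific binding was set with 2 mM ATP.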

Experiment [4] concerns the target catalytic domain (JH1, amino acids 808-1132) of human JAK2 (Homo sapiens, UniProt O60674). Nature of the experiment: JAK2 HTRF Enzyme Activity Assay. The note with it: ATP 30 µM, 60 minutes at 25° C.; read-out: V617F ENZ 30 UM. The experiment is classed as biochemical.

Sequence of catalytic domain (JH1, amino acids 808-1132) of human JAK2 (O60674 808-1132 limits assumed): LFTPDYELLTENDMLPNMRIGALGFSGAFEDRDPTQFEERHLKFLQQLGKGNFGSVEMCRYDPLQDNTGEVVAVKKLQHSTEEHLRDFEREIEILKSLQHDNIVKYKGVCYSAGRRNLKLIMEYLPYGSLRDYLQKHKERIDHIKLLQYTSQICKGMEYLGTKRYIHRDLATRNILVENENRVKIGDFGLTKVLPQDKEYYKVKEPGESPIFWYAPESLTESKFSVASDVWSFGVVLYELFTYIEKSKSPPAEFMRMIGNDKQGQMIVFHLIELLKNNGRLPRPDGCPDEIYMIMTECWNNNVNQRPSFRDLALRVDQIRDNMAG
T3 sequence (O60674 536-812 V617F/W659A/W777A/F794H): as the sequence (O60674 536-812 W659A/W777A/F794H) above, with V82F counted along it
T1 sequence (O60674 826-1132): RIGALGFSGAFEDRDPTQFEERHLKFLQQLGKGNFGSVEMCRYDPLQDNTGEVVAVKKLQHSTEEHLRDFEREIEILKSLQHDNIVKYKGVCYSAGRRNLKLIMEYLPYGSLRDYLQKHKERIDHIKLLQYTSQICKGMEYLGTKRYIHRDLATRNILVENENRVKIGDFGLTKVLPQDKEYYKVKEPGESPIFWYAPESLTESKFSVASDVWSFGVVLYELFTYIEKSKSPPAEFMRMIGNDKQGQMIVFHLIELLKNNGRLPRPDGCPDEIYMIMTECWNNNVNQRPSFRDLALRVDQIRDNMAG

As to `[2H]C([2H])([2H])n1c(=O)n([C@@H]2CC[C@@](C)(NC(=O)C3CC3)C2)c2cc(Nc3cc(C(=O)N4CCOCC4)c4cccc(C(F)(F)F)c4n3)ncc21` [Example 116, N-((1R,3R)-1-methyl-3-(3-(methyl-d3)-6-((4-(morpholine-4-carbonyl)-8-(trifluoromethyl)quinolin-2-yl)amino)-2-oxo-2,3-dihydro-1H-imidazo[4,5-c]pyridin-1-yl)cyclopentyl)cyclopropanecarboxamide], the IC50 is 100 to 500 nM in experiment [1], no more than 10 nM in experiment [2], no more than 10 nM in experiment [3] and 100 to 500 nM in experiment [4].
On to `[2H]C([2H])([2H])n1c(=O)n([C@@H]2CC[C@](C)(NC(=O)C3CC3)C2)c2cc(Nc3cc(CO)c4nn(C)c(-c5cnn(C(F)(F)F)c5)c4n3)ncc21` [Example 117, N-((1S,3R)-3-(6-((7-(hydroxymethyl)-2-methyl-3-(1-(trifluoromethyl)-1H-pyrazol-4-yl)-2H-pyrazolo[4,3-b]pyridin-5-yl)amino)-3-(methyl-d3)-2-oxo-2,3-dihydro-1H-imidazo[4,5-c]pyridin-1-yl)-1-methylcyclopentyl)cyclopropanecarboxamide], for which the IC50 in experiment [1] is greater than 1000 nM; in experiment [2] it was no more than 10 nM; in experiment [3], no more than 10 nM; in experiment [4], greater than 1000 nM.
Regarding `[2H]C([2H])([2H])n1c(=O)n([C@@H]2CC[C@@H](NC(=O)OC)C2)c2cc(Nc3ccc4c(n3)c(-c3cnn(C(F)(F)F)c3)nn4CC(C)(C)O)ncc21` [Example 118, Methyl ((1R,3R)-3-(6-((1-(2-hydroxy-2-methylpropyl)-3-(1-(trifluoromethyl)-1H-pyrazol-4-yl)-1H-pyrazolo[4,3-b]pyridin-5-yl)amino)-3-(methyl-d3)-2-oxo-2,3-dihydro-1H-imidazo[4,5-c]pyridin-1-yl)cyclopentyl)carbamate], the IC50 in experiment [1] is greater than 1000 nM; in experiment [2] it was no more than 10 nM; in experiment [3] it was no more than 10 nM; in experiment [4], greater than 1000 nM.
As to `[2H]C([2H])([2H])n1c(=O)n([C@@H]2CC[C@](C)(NC(=O)C3CC3)C2)c2cc(Nc3ccc4c(n3)c(-c3cnn(C(F)(F)F)c3)nn4CC(C)(C)O)ncc21` [Example 119, N-((1S,3R)-3-(6-((1-(2-Hydroxy-2-methylpropyl)-3-(1-(trifluoromethyl)-1H-pyrazol-4-yl)-1H-pyrazolo[4,3-b]pyridin-5-yl)amino)-3-(methyl-d3)-2-oxo-2,3-dihydro-1H-imidazo[4,5-c]pyridin-1-yl)-1-methylcyclopentyl)cyclopropanecarboxamide], the IC50 in experiment [1] was greater than 1000 nM; in experiment [2], no more than 10 nM; in experiment [3], no more than 10 nM; in experiment [4], greater than 1000 nM.
On to `[2H]C([2H])([2H])n1c(=O)n([C@H]2CC[C@@](C)(NC(=O)C3CC3)CC2)c2cc(Nc3ccc4c(n3)c(-c3cnn(C(F)(F)F)c3)nn4CC(C)(C)O)ncc21` [Example 120, N-((1s,4s)-4-(6-((1-(2-Hydroxy-2-methylpropyl)-3-(1-(trifluoromethyl)-1H-pyrazol-4-yl)-1H-pyrazolo[4,3-b]pyridin-5-yl)amino)-3-(methyl-d3)-2-oxo-2,3-dihydro-1H-imidazo[4,5-c]pyridin-1-yl)-1-methylcyclohexyl)cyclopropanecarboxamide], for which the IC50 is greater than 1000 nM in experiment [1], no more than 10 nM in experiment [2], no more than 10 nM in experiment [3] and greater than 1000 nM in experiment [4].
As for `[2H]C([2H])([2H])n1c(=O)n([C@@H]2CC[C@@H](NC(=O)OC)C2)c2cc(Nc3cc(C(=O)N4CCOCC4)c4cc(C)cc(C(F)(F)F)c4n3)ncc21` [Example 135, Methyl ((1R,3R)-3-(3-(methyl-d3)-6-((6-methyl-4-(morpholine-4-carbonyl)-8-(trifluoromethyl)quinolin-2-yl)amino)-2-oxo-2,3-dihydro-1H-imidazo[4,5-c]pyridin-1-yl)cyclopentyl)carbamate], the IC50 is greater than 1000 nM in experiment [1], no more than 10 nM in experiment [2], no more than 10 nM in experiment [3] and 500 to 1000 nM in experiment [4].
As for `[2H]C([2H])([2H])n1c(=O)n([C@@H]2CC[C@@H](NC(=O)OC)C2)c2cc(Nc3cc(C(C)(C)O)cc(-c4ncc(C(C)(C)O)s4)n3)ncc21` [Example 144, Methyl ((1R,3R)-3-(6-((4-(2-hydroxypropan-2-yl)-6-(5-(2-hydroxypropan-2-yl)thiazol-2-yl)pyridin-2-yl)amino)-3-(methyl-d3)-2-oxo-2,3-dihydro-1H-imidazo[4,5-c)pyridin-1-yl)cyclopentyl)carbamate], the IC50 in experiment [1] was greater than 1000 nM; in experiment [2] it was no more than 10 nM; in experiment [3], no more than 10 nM; in experiment [4], greater than 1000 nM.
`[2H]C([2H])([2H])n1c(=O)n([C@@H]2CC[C@@H](NC(=O)OC)C2)c2cc(Nc3cc(C(C)(C)O)cc(-c4ncc(C(O)(C(F)(F)F)C(F)(F)F)s4)n3)ncc21` [Example 145, Methyl ((1R,3R)-3-(6-((6-(5-(1,1,1,3,3,3-hexafluoro-2-hydroxypropan-2-yl)thiazol-2-yl)-4-(2-hydroxypropan-2-yl)pyridin-2-yl)amino)-3-(methyl-d3)-2-oxo-2,3-dihydro-1H-imidazo[4,5-c]pyridin-1-yl)cyclopentyl)carbamate]: the IC50 in experiment [1] is greater than 1000 nM; in experiment [2] it was no more than 10 nM; in experiment [3] it was no more than 10 nM; in experiment [4], greater than 1000 nM.
For the compound `[2H]C([2H])([2H])n1c(=O)n([C@@H]2CC[C@@H](NC(=O)OC)C2)c2cc(Nc3cc(-c4cnccc4C(F)(F)F)cc(-c4ccc(C(F)F)s4)n3)ncc21` [Example 154, Methyl ((1R,3R)-3-(6-((6′-(5-(difluoromethyl)thiophen-2-yl)-4-(trifluoromethyl)-[3,4′-bipyridin]-2′-yl)amino)-3-(methyl-d3)-2-oxo-2,3-dihydro-1H-imidazo[4,5-c]pyridin-1-yl)cyclopentyl)carbamate], the IC50 in experiment [1] is greater than 1000 nM; in experiment [2] it was no more than 10 nM; in experiment [3] it was no more than 10 nM; in experiment [4], greater than 1000 nM.
In the case of `[2H]C([2H])([2H])n1c(=O)n([C@]2([2H])CC[C@@H](NC(=O)OC)C2)c2cc(Nc3cc(C(C)(C)O)cc(-c4ncc(C(F)(F)F)s4)n3)ncc21` [Example 156, Methyl ((1R,3R)-3-(6-((4-(2-hydroxypropan-2-yl)-6-(5-(trifluoromethyl)thiazol-2-yl)pyridin-2-yl)amino)-3-(methyl-d3)-2-oxo-2,3-dihydro-1H-imidazo[4,5-c]pyridin-1-yl)cyclopentyl-3-d)carbamate], the IC50 in experiment [1] is greater than 1000 nM; in experiment [2], no more than 10 nM; in experiment [3], no more than 10 nM; in experiment [4], greater than 1000 nM.
For `[2H]C([2H])([2H])n1c(=O)n([C@@H]2CC[C@@H](NC(=O)OC)C2)c2cc(Nc3cc(C4CCN(C)CC4)cc(-c4ncc(C(F)(F)F)s4)n3)ncc21` [Example 157, Methyl ((1R,3R)-3-(3-(methyl-d3)-6-((4-(1-methylpiperidin-4-yl)-6-(5-(trifluoromethyl)thiazol-2-yl)pyridin-2-yl)amino)-2-oxo-2,3-dihydro-1H-imidazo[4,5-c]pyridin-1-yl)cyclopentyl)carbamate], the IC50 in experiment [1] was greater than 1000 nM; in experiment [2], no more than 10 nM; in experiment [3] it was no more than 10 nM; in experiment [4], greater than 1000 nM.
